Literature values as cited in patent publication US8609138B2, “ω3 fatty acid compound preparation” (Mochida Pharmaceutical Co., Ltd., priority 2010, dated 2013).

Key:
[1] = pharmaceutical products; Non-Patent Literatures 2-4
[2] = pH 7.4; Non-Patent Literature 1

SMILES | partition coefficient (octanol-water partition coefficient) [1] | log P7.4; water-octanol partition coefficient at a pH of 7.4 [2]
CC[C@H](C)C(=O)O[C@H]1C[C@H](O)C=C2C=C[C@H](C)[C@H](CC[C@@H](O)C[C@@H](O)CC(=O)O)[C@H]21 [Pravastatin sodium] | −0.33 | 
CC[C@H](C)C(=O)O[C@H]1C[C@H](O)C=C2C=C[C@H](C)[C@H](CC[C@@H](O)C[C@@H](O)CC(=O)O)[C@H]21 [pravastatin] |  | −0.84
CC(C)c1nc(N(C)S(C)(=O)=O)nc(-c2ccc(F)cc2)c1/C=C/[C@@H](O)C[C@@H](O)CC(=O)[O-].CC(C)c1nc(N(C)S(C)(=O)=O)nc(-c2ccc(F)cc2)c1/C=C/[C@@H](O)C[C@@H](O)CC(=O)[O-].[Ca+2] [rosuvastatin calcium] | −0.3±0.1 | 
CC(C)c1nc(N(C)S(C)(=O)=O)nc(-c2ccc(F)cc2)c1/C=C/[C@@H](O)C[C@@H](O)CC(=O)O [rosuvastatin] |  | ~-0.33
CCC(C)(C)C(=O)O[C@H]1C[C@@H](C)C=C2C=C[C@H](C)[C@H](CC[C@@H]3C[C@@H](O)CC(=O)O3)[C@H]21 [simvastatin] |  | 1.60
